From patent US12048686B2, “Compositions and methods for activating NRF2-dependent gene expression” (The University of Chicago, priority 2018, dated 2024)
Entries after “also recorded” stand apart in the source; their conditions may differ.

Columns and labels:
PGK1 = molecular target: T1, PGK1 (Homo sapiens, UniProt P00558); assay: Isothermal dose response profiling of PGK1 against GAPDH; type: binding; conditions: 57° C., 0-333 μM
T1 sequence (P00558 1-417): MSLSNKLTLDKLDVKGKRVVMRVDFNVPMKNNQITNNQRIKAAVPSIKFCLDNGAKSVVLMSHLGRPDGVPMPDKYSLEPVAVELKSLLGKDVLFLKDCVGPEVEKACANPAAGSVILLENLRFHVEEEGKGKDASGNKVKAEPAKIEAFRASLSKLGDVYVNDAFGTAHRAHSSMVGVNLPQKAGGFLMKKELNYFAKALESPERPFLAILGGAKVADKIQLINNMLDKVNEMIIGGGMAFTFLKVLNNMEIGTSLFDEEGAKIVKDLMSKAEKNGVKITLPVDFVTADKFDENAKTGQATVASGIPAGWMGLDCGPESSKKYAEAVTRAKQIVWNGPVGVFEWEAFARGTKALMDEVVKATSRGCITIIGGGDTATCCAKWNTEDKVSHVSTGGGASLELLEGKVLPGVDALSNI
Experimental: FIG. 5A-E. A photoactivatable affinity probe-based approach identifies PGK1 as the relevant cellular target of CBR-470-1. (a) Silver staining and anti-biotin Western blots of ammonium sulfate fractionated lysates from UV-irradiated IMR32 cells treated with 5 μM for 1 hour with or without CBR-470-1 competition (250 μM) (n=3). Shown on the right are initial proteomic target results from gel-band digestion and LC-MS/MS analysis. (b) Dye-based thermal denaturation assay with recombinant PGK1 in the presence CBR-470-1 (20 μM) or vehicle alone (n=3). Calculated Tm values are listed. (c, d) Dose-dependent thermal stability assay of recombinant PGK1 and GAPDH in the presence of increasing doses of CBR-470-1 near the Tm of both proteins (57° C.) (c) (n=5) or room temperature (d) (n=3). Western blot of sample supernatants after centrifugation (13,000 rpm) detected total PGK1 and GAPDH protein, which were plotted in Prism (below). (e) ARE-LUC reporter activity in HEK293T cells with transient shRNA.
Isothermal dose response profiling of PGK1. In-vitro thermal profiling assay for recombinant proteins was performed by dissolving pure recombinant PGK1 and GAPDH into PBS and dividing equal amount of mixture into 9 aliquots. […] Samples were analyzed by SDS-PAGE and Western blot.

Human lung fibroblasts = assay: TGF-beta-induced collagen and SMA in human lung fibroblasts (Western blot); type: cell-based; conditions: increasing doses, day 0, 1, 2
Experimental: FIG. 22. Human lung fibroblasts were treated with TGF-beta and increasing doses of CBR-470 and measured collagen and alpha-smooth muscle actin (a-SMA), a marker for myofibroblast differentiation at day 0, 1, and 2.
Fibrosis is defined by the overgrowth, hardening, and/or scarring of various tissues and is attributed to excess deposition of extracellular matrix components including collagen. Fibrosis is the end result of chronic inflammatory reactions induced by a variety of stimuli including persistent infections, autoimmune reactions, allergic responses, chemical insults, radiation, and tissue injury. Fibroblasts under stimulation by transforming growth factor (TGF)-β, a key cytokine in the pathogenesis of IPF, alter their gene expression profile with de novo expression of cytoskeletal and contractile proteins normally found within smooth muscle cells, and components of the extracellular matrix, including collagen. Fibroblast cells were treated with TGF-β for 24 or 48 hours or left untreated (0). Collagen was detected by Westernblot using an anti-collagen antibody (Cedarlane, CL50111AP-1, 1:3000 dilution). SMA was detected with an anti-SMA antibody from Sigma (T6074, 1:20000 dilution). […] Collagen and SMA production are biomarkers of fibrotic phenotypes in vivo (FIG. 22).

IMR32 cells = assay: Quantitative metabolomic profiling of IMR32 cells; type: cell-based
Experimental: Quantitative Metabolomic Profiling. For polar metabolite profiling experiments, cells were grown in 15 cm plates and cultured in RPMI supplemented with 10% FBS, 2 mM L-glutamine and 1% P/S prior to media replacement containing either vehicle (DMSO) or the indicated dose of CBR-470-1. Following incubation for the appropriate time, cells were scraped into ice-cold PBS and isolated by centrifugation at 1,400 g at 4° C. Cell pellets were resuspended in 300 μl of an 80:20 mixture of cold MeOH/H2O, an internal standard was added (10 nmol d3-serine; Sigma Aldrich), and the suspension was sonicated (Fisher Scientific FB-505) for 5 seconds followed by a 10 minute centrifugation at 16,000 g. […] Metabolite peak transitions and retention times are listed in Table 2 and were confirmed by running standards for measured glycolytic, PPP, CAC and co-factor metabolites. 2-phosphoglycerate and 3-phosphoglycerate isomers were quantified in aggregate (2PG/3PG). Relative metabolite abundance was quantified by integrated peak area for the given MRM-transition, and all metabolite levels were normalized to internal standard extracted ion intensity values for d3-serine. These parameters were used to quantify all metabolites, with the exception of 1,3-BPG and MGx, which required chemical derivitization to stable intermediates prior to LC-MS/MS quantification, as previously reported^20, 33. […]

SMILES: CC(C)CN[C@H]1CS(=O)(=O)C[C@@H]1S(=O)(=O)c1ccc(Cl)cc1 [CBR-470-1]
- alteration of PGK1 stability, isothermal dose response against PGK1 and GAPDH (PGK1): selective, dose-dependent alteration of PGK1 stability
- alpha-smooth muscle actin (a-SMA), marker for myofibroblast differentiation (Human lung fibroblasts): dose- and time-dependent inhibition of collagen and smooth-muscle actin (SMA) protein production; also recorded: inhibited myofibroblast differentiation and collagen protein expression in a dose dependent manner
- collagen protein (Human lung fibroblasts): dose- and time-dependent inhibition of collagen and smooth-muscle actin (SMA) protein production; also recorded: inhibited myofibroblast differentiation and collagen protein expression in a dose dependent manner
- downstream metabolites (3PG, lactate) (IMR32 cells): depletion of downstream metabolites
- metabolite levels upstream of PGK1 (BPG, GAP) (IMR32 cells): rapid increase in metabolite levels upstream of PGK1
